Laboratory results from PMC4042408 (ACS chemical biology, 2013).

Tests used:
[1] = test system: C20:4 LPA hydrolytic activity of mouse brain proteomes; type: biochemical; conditions: inhibitor 1 μM, 30 min, 37°C
[2] = molecular target: T1, HSL (Mus musculus, UniProt P54310); experiment: Gel-based competitive ABPP; type: biochemical
T1 sequence (P54310 1-759): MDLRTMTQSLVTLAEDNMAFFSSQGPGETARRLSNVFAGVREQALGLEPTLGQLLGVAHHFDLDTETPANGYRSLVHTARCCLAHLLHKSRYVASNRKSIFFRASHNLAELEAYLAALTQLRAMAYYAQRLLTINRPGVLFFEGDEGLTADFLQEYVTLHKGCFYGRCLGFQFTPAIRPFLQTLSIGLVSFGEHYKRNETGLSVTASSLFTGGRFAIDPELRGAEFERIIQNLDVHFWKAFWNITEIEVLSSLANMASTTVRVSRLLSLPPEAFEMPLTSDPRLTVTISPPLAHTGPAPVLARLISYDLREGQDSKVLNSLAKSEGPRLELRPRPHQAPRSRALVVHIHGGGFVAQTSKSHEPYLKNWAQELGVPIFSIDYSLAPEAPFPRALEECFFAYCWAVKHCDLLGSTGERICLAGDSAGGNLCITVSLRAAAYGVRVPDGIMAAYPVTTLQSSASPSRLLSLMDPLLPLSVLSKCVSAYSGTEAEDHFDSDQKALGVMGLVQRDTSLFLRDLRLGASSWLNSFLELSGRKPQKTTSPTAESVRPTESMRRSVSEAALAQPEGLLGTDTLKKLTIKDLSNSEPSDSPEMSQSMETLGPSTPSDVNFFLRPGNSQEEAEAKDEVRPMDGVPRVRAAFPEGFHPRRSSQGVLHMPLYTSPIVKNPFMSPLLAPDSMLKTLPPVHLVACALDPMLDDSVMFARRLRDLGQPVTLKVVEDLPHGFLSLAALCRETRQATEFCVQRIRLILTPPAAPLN

[3] = molecular target: T2, CES1 (Mus musculus, UniProt Q8VCC2); experiment: Gel-based competitive ABPP; type: biochemical
T2 sequence (Q8VCC2 19-565): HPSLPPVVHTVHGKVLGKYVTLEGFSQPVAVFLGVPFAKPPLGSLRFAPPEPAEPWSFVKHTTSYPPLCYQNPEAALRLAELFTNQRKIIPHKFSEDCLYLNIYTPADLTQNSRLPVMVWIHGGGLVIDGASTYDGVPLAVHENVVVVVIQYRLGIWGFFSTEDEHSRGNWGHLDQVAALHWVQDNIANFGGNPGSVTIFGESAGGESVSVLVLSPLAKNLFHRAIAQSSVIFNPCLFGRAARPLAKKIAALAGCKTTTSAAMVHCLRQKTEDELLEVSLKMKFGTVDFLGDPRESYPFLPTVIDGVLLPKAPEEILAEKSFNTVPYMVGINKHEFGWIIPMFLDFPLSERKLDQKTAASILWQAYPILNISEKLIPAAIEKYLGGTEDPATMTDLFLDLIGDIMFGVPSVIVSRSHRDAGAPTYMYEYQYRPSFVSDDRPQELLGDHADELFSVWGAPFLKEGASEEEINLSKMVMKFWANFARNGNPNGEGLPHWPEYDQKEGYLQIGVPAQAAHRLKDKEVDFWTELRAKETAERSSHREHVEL

[4] = molecular target: CES2; experiment: Gel-based competitive ABPP; type: biochemical
[5] = molecular target: T3, APEH (Mus musculus, UniProt Q8R146); experiment: Gel-based competitive ABPP; type: biochemical; conditions: mouse brain proteome
T3 sequence (Q8R146 1-732): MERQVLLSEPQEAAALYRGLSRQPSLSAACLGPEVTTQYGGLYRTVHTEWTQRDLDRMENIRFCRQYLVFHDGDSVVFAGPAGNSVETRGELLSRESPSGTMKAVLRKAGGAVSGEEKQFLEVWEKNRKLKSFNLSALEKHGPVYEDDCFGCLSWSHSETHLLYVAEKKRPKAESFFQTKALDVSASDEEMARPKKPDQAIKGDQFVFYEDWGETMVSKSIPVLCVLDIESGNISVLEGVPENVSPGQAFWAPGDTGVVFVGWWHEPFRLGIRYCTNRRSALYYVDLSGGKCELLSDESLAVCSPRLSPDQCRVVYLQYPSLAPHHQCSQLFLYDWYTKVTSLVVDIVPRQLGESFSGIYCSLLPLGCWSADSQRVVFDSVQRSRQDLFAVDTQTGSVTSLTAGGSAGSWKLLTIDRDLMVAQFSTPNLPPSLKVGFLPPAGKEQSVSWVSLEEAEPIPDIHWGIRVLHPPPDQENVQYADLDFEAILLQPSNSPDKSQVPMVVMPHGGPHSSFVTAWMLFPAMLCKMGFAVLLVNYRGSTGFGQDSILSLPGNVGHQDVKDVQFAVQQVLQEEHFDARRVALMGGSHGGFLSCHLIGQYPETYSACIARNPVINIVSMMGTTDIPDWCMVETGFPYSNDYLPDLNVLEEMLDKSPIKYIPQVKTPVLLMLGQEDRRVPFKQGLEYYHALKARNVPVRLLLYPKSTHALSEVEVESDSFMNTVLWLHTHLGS

[6] = molecular target: T4, ABHD6 (Mus musculus, UniProt Q8R2Y0); experiment: Gel-based competitive ABPP; type: biochemical
T4 sequence (Q8R2Y0 1-336): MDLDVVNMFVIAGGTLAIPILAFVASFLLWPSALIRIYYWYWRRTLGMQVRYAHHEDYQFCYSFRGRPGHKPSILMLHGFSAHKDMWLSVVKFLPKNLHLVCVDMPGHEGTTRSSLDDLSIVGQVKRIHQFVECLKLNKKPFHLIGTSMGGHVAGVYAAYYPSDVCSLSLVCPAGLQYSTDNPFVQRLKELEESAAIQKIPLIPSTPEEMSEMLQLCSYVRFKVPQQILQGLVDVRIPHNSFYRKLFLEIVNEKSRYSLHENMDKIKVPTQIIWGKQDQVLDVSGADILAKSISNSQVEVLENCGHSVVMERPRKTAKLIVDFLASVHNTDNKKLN

[7] = molecular target: T5, CES3 (Mus musculus, UniProt Q8VCT4); experiment: Gel-based competitive ABPP; type: biochemical
T5 sequence (Q8VCT4 19-565): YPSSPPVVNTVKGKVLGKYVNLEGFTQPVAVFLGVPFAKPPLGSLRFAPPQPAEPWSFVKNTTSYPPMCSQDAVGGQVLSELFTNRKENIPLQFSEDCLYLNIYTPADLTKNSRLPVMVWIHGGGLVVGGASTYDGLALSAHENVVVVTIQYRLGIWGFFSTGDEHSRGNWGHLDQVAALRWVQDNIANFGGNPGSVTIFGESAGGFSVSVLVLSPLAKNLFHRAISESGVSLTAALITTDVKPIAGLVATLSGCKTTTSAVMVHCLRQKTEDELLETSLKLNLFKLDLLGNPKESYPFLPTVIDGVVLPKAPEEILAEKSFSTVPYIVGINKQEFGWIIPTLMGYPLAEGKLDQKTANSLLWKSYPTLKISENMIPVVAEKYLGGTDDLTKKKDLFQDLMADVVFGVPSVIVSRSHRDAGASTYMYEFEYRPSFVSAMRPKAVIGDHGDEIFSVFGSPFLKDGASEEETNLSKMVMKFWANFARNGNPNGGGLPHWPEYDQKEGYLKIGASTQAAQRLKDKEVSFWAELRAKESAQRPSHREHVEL

[8] = molecular target: T6, ABHD3 (Mus musculus, UniProt Q91ZH7); experiment: Gel-based competitive ABPP; type: biochemical
T6 sequence (Q91ZH7 1-411): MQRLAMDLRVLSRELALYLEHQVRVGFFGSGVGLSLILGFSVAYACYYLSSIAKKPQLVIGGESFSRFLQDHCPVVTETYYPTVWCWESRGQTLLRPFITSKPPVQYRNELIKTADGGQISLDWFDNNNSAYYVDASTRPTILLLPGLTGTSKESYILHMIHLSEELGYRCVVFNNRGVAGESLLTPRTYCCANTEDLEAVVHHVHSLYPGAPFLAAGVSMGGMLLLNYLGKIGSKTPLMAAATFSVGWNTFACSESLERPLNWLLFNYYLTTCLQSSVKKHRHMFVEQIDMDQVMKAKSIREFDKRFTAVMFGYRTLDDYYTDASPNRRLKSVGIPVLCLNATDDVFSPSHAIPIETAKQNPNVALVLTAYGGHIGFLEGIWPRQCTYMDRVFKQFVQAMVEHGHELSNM

[9] = molecular target: T7, KIAA1363 (Mus musculus, UniProt Q8BLF1); experiment: Gel-based competitive ABPP; type: biochemical
T7 sequence (Q8BLF1 1-408): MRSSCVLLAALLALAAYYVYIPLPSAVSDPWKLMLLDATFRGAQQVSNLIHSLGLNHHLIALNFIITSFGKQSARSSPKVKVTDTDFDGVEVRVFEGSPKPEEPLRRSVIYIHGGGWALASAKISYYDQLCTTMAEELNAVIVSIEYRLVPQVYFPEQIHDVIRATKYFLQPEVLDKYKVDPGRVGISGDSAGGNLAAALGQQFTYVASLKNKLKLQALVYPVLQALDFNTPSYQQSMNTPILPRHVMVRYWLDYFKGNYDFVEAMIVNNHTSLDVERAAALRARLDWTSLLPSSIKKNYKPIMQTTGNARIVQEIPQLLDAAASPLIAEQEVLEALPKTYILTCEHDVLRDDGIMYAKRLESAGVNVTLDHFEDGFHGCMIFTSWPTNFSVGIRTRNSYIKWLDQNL

[10] = test system: serine hydrolases; experiment: Competitive ABPP-MudPIT of brain and peripheral tissues; type: in vivo, mouse

For `O=C(Oc1ccc([N+](=O)[O-])cc1)N1CCN(Cc2cccc(Oc3ccccc3)c2)CC1` [JZL195], the “C20:4 LPA hydrolytic activity (C20:4 FFA release)” value [1] was “inhibits”.

In the case of `CCOP(=O)(OCC)Oc1nc(Cl)c(Cl)cc1Cl` [CPO, chlorpyrifos-oxon], the “IC50 compared to that of ACHE” value [2] is reported as “equivalent or lower”, the “IC50 compared to that of ACHE” value [3] is reported as “equivalent or lower” and the “IC50 compared to that of ACHE” value [4] is reported as “equivalent or lower”. The “IC50 compared to that of ACHE” value [5] was “equivalent or lower”, the “IC50 compared to that of ACHE” value [6] was “equivalent or lower” and the “IC50 compared to that of ACHE” value [7] was “comparable”. The “IC50 compared to that of ACHE” value [8] was “comparable” and the “IC50 compared to that of ACHE” value [9] was “comparable”.

For `CCOP(=S)(OCC)Oc1nc(Cl)c(Cl)cc1Cl` [CPF, chlorpyrifos], the “additional serine hydrolases not found in the brain (AADAC, CES1, CES1F, CES2, CES2B, CES2G, CES3, CES5, CES6, ES22, BChE) in peripheral tissues” value ([10]; CPF-treated mice, peripheral tissues) was “blocked” and the “total number of metabolic serine hydrolases inhibited in vivo” value ([10]; mice, brain and peripheral tissues, CPF 50 mg/kg ip, 4 h) was “twenty-one”.

With `O=C(Oc1ccc([N+](=O)[O-])cc1)N1CCC(C(O)(c2ccc3c(c2)OCO3)c2ccc3c(c2)OCO3)CC1` [JZL184] the “C20:4 LPA hydrolytic activity (C20:4 FFA release)” value [1] was “inhibits”.
